Data: ChEMBL document CHEMBL1687756 (Antimicrob Agents Chemother, 2010)

How the values were obtained:
[1] = Drug level in Beagle dog spleen at 5 mg/kg, sc after 3 months; format: ADME, organism-based, Canis lupus familiaris; set-up: dose 5 mg/kg, route subcutaneous; conditions: read-out: Drug uptake
[2] = Drug level in Beagle dog lymph node mandibular at 5 mg/kg administered intramuscularly after 6 months; format: ADME, organism-based, Canis lupus familiaris; set-up: dose 5 mg/kg, route intramuscular; conditions: im, read-out: Drug uptake
[3] = Ratio of drug level in spleen to plasma in female Beagle dog at 400 mg/kg administered intramuscularly after 1 month; format: ADME, organism-based, Canis lupus familiaris; set-up: dose 400 mg/kg, route intramuscular; conditions: im
[4] = AUC (0 to last) in male dog at 200 mg, sc after 29 days; conditions: plasma
Canis familiaris [5] = experiment: Tmax in Beagle dog at 5 mg/kg, sc after 184 days; format: ADME, organism-based, Canis lupus familiaris; set-up: dose 5 mg/kg, route subcutaneous; conditions: in vivo, 4416 h
[6] = Drug level in female Beagle dog thymus at 200 mg/kg administered intramuscularly after 3 months; format: ADME, organism-based, Canis lupus familiaris; set-up: dose 200 mg/kg, route intramuscular; conditions: im, read-out: Drug uptake
[7] = Drug level in Beagle dog thymus at 5 mg/kg, sc after 6 months; format: ADME, organism-based, Canis lupus familiaris; set-up: dose 5 mg/kg, route subcutaneous; conditions: read-out: Drug uptake
[8] = Plasma concentration in female Beagle dog at 400 mg/kg, sc after 3 months; format: ADME, organism-based, Canis lupus familiaris; set-up: dose 400 mg/kg, route subcutaneous
[9] = Plasma concentration in male Beagle dog at 400 mg/kg, sc after 1 month; format: ADME, organism-based, Canis lupus familiaris; set-up: dose 400 mg/kg, route subcutaneous
[10] = Ratio of drug level in spleen to plasma in Beagle dog at 5 mg/kg, sc after 3 months; format: ADME, organism-based, Canis lupus familiaris; set-up: dose 5 mg/kg, route subcutaneous
[11] = Ratio of drug level in thymus to plasma in female Beagle dog at 400 mg/kg, sc after 3 months; format: ADME, organism-based, Canis lupus familiaris; set-up: dose 400 mg/kg, route subcutaneous
[12] = Tmax in male dog at 400 mg administered intramuscularly after 85 days; conditions: in vivo, im
[13] = Cmax in female dog at 200 mg, sc after 85 days; conditions: in vivo
[14] = Drug level in Beagle dog muscle at non-injected site at 5 mg/kg administered intramuscularly after 6 months; format: ADME, organism-based, Canis lupus familiaris, Muscle tissue; set-up: dose 5 mg/kg, route intramuscular; conditions: im, read-out: Drug uptake
[15] = Drug level in Beagle dog skin at non-injected site at 5 mg/kg administered intramuscularly after 3 months; format: ADME, organism-based, Canis lupus familiaris, Zone of skin; set-up: dose 5 mg/kg, route intramuscular; conditions: im, read-out: Drug uptake
[16] = Drug level in female Beagle dog spleen at 200 mg/kg, sc after 3 months; format: ADME, organism-based, Canis lupus familiaris; set-up: dose 200 mg/kg, route subcutaneous; conditions: read-out: Drug uptake
[17] = Ratio of drug level in spleen to plasma in male Beagle dog at 400 mg/kg administered intramuscularly after 3 months; format: ADME, organism-based, Canis lupus familiaris; set-up: dose 400 mg/kg, route intramuscular; conditions: im
[18] = Drug level in female Beagle dog thymus at 400 mg/kg, sc after 1 month; format: ADME, organism-based, Canis lupus familiaris; set-up: dose 400 mg/kg, route subcutaneous; conditions: read-out: Drug uptake
[19] = Ratio of drug level in spleen to plasma in male Beagle dog at 400 mg/kg, sc after 3 months; format: ADME, organism-based, Canis lupus familiaris; set-up: dose 400 mg/kg, route subcutaneous
[20] = Drug level in male Beagle dog thymus at 200 mg/kg, sc after 1 month; format: ADME, organism-based, Canis lupus familiaris; set-up: dose 200 mg/kg, route subcutaneous; conditions: read-out: Drug uptake
Plasma = experiment: (§1) Plasma concentration in Beagle dog at 5 mg/kg administered intramuscularly after 6 months; format: ADME, organism-based, Canis lupus familiaris; set-up: dose 5 mg/kg, route intramuscular; conditions: in vivo, im, 4383 h, BLD = below limit of detection
[21] = as §1; format: ADME, organism-based, Canis lupus familiaris; set-up: dose 5 mg/kg, route intramuscular; conditions: im
[22] = Drug level in Beagle dog muscle at injected site at 5 mg/kg, sc after 6 months; format: ADME, organism-based, Canis lupus familiaris, Muscle tissue; set-up: dose 5 mg/kg, route subcutaneous; conditions: read-out: Drug uptake
[23] = Plasma concentration in Beagle dog at 5 mg/kg, sc after 3 months; format: ADME, organism-based, Canis lupus familiaris; set-up: dose 5 mg/kg, route subcutaneous
[24] = Ratio of drug level in thymus to plasma in male Beagle dog at 400 mg/kg administered intramuscularly after 3 months; format: ADME, organism-based, Canis lupus familiaris; set-up: dose 400 mg/kg, route intramuscular; conditions: im
[25] = Drug level in male Beagle dog spleen at 200 mg/kg administered intramuscularly after 1 month; format: ADME, organism-based, Canis lupus familiaris; set-up: dose 200 mg/kg, route intramuscular; conditions: im, read-out: Drug uptake
[26] = Tmax in female dog at 400 mg administered intramuscularly after 29 days; conditions: in vivo, im
[27] = Drug level in Beagle dog lymph node popliteal at 5 mg/kg, sc after 3 months; format: ADME, organism-based, Canis lupus familiaris; set-up: dose 5 mg/kg, route subcutaneous; conditions: read-out: Drug uptake
[28] = Drug level in Beagle dog lymph node iliac at 5 mg/kg, sc after 3 months; format: ADME, organism-based, Canis lupus familiaris; set-up: dose 5 mg/kg, route subcutaneous; conditions: read-out: Drug uptake
[29] = Ratio of drug level in thymus to plasma in female Beagle dog at 400 mg/kg administered intramuscularly after 3 months; format: ADME, organism-based, Canis lupus familiaris; set-up: dose 400 mg/kg, route intramuscular; conditions: im
[30] = Ratio of drug level in thymus to plasma in female Beagle dog at 200 mg/kg administered intramuscularly after 1 month; format: ADME, organism-based, Canis lupus familiaris; set-up: dose 200 mg/kg, route intramuscular; conditions: im
Canis familiaris [31] = experiment: Toxicity in Beagle dog assessed as inflammatory signs at 20 mg/kg, sc after 3 months; format: organism-based, Canis lupus familiaris; set-up: dose 20 mg/kg, route subcutaneous; conditions: in vivo, 2191.5 h
[32] = Drug level in female Beagle dog thymus at 200 mg/kg, sc after 3 months; format: ADME, organism-based, Canis lupus familiaris; set-up: dose 200 mg/kg, route subcutaneous; conditions: read-out: Drug uptake
[33] = Tmax in female dog at 200 mg administered intramuscularly after 29 days; conditions: in vivo, im
[34] = AUC (0 to infinity) in Sprague-Dawley rat at 1.25 mg/kg, iv after 2 days; format: ADME, organism-based; set-up: time infinity, dose 1.25 mg/kg, route intravenous; conditions: plasma
[35] = AUC (0 to last) in male dog at 200 mg, sc after 85 days; conditions: plasma
[36] = AUC (0 to infinity) in Beagle dog at 1.25 mg/kg, iv after 2 days; format: ADME, organism-based, Canis lupus familiaris; set-up: dose 1.25 mg/kg, route intravenous, time infinity; conditions: plasma
[37] = Ratio of drug level in lymph node popliteal to plasma in Beagle dog at 5 mg/kg, sc after 6 months; format: ADME, organism-based, Canis lupus familiaris; set-up: dose 5 mg/kg, route subcutaneous
[38] = Drug level in Beagle dog liver at 5 mg/kg administered intramuscularly after 3 months; format: ADME, organism-based, Canis lupus familiaris; set-up: dose 5 mg/kg, route intramuscular; conditions: im, read-out: Drug uptake
[39] = Ratio of drug level in lymph node popliteal to plasma in Beagle dog at 5 mg/kg administered intramuscularly after 1 month; format: ADME, organism-based, Canis lupus familiaris; set-up: dose 5 mg/kg, route intramuscular; conditions: im
[40] = Drug level in Beagle dog spleen at 5 mg/kg administered intramuscularly after 3 months; format: ADME, organism-based, Canis lupus familiaris; set-up: dose 5 mg/kg, route intramuscular; conditions: im, read-out: Drug uptake
[41] = Drug level in Beagle dog lymph node popliteal at 5 mg/kg administered intramuscularly after 6 months; format: ADME, organism-based, Canis lupus familiaris; set-up: dose 5 mg/kg, route intramuscular; conditions: im, read-out: Drug uptake
[42] = Ratio of drug level in spleen to plasma in female Beagle dog at 200 mg/kg administered intramuscularly after 1 month; format: ADME, organism-based, Canis lupus familiaris; set-up: dose 200 mg/kg, route intramuscular; conditions: im
[43] = Ratio of drug level in spleen to plasma in female Beagle dog at 400 mg/kg, sc after 3 months; format: ADME, organism-based, Canis lupus familiaris; set-up: dose 400 mg/kg, route subcutaneous
[44] = Drug level in male Beagle dog thymus at 400 mg/kg, sc after 1 month; format: ADME, organism-based, Canis lupus familiaris; set-up: dose 400 mg/kg, route subcutaneous; conditions: read-out: Drug uptake
[45] = Drug level in female Beagle dog spleen at 400 mg/kg administered intramuscularly after 3 months; format: ADME, organism-based, Canis lupus familiaris; set-up: dose 400 mg/kg, route intramuscular; conditions: im, read-out: Drug uptake
[46] = Plasma concentration in male Beagle dog at 200 mg/kg administered intramuscularly after 1 month; format: ADME, organism-based, Canis lupus familiaris; set-up: dose 200 mg/kg, route intramuscular; conditions: im
[47] = Drug level in female Beagle dog spleen at 200 mg/kg administered intramuscularly after 1 month; format: ADME, organism-based, Canis lupus familiaris; set-up: dose 200 mg/kg, route intramuscular; conditions: im, read-out: Drug uptake
[48] = Drug level in male Beagle dog spleen at 200 mg/kg, sc after 1 month; format: ADME, organism-based, Canis lupus familiaris; set-up: dose 200 mg/kg, route subcutaneous; conditions: read-out: Drug uptake
[49] = Drug level in Beagle dog thymus at 5 mg/kg administered intramuscularly after 3 months; format: ADME, organism-based, Canis lupus familiaris; set-up: dose 5 mg/kg, route intramuscular; conditions: im, read-out: Drug uptake
[50] = Ratio of drug level in spleen to plasma in female Beagle dog at 400 mg/kg administered intramuscularly after 3 months; format: ADME, organism-based, Canis lupus familiaris; set-up: dose 400 mg/kg, route intramuscular; conditions: im
[51] = Drug level in Beagle dog muscle at injected site at 5 mg/kg, sc after 3 months; format: ADME, organism-based, Canis lupus familiaris, Muscle tissue; set-up: dose 5 mg/kg, route subcutaneous; conditions: read-out: Drug uptake
[52] = Drug level in Beagle dog lymph node mandibular at 5 mg/kg, sc after 6 months; format: ADME, organism-based, Canis lupus familiaris; set-up: dose 5 mg/kg, route subcutaneous; conditions: read-out: Drug uptake
[53] = Ratio of drug level in spleen to plasma in female Beagle dog at 200 mg/kg administered intramuscularly after 3 months; format: ADME, organism-based, Canis lupus familiaris; set-up: dose 200 mg/kg, route intramuscular; conditions: im
[54] = Drug level in male Beagle dog thymus at 200 mg/kg, sc after 3 months; format: ADME, organism-based, Canis lupus familiaris; set-up: dose 200 mg/kg, route subcutaneous; conditions: read-out: Drug uptake
[55] = Drug level in Beagle dog thymus at 5 mg/kg, sc after 3 months; format: ADME, organism-based, Canis lupus familiaris; set-up: dose 5 mg/kg, route subcutaneous; conditions: read-out: Drug uptake

## Cc1cc(/C=C/C#N)cc(C)c1Nc1ccnc(Nc2ccc(C#N)cc2)n1 [RILPIVIRINE]
[1]
  concentration at 2191.5 h: 9.7 ng/g
[2]
  concentration at 4383 h: 6.9 ng/g
[3]
  Kp at 730.5 h: 2.6
[4]
  AUC(0-t) at 696 h: 56800 ng·h/mL
Canis familiaris [5]
  Tmax: 144 h
[6]
  concentration at 2191.5 h: 27.4 ng/g
[7]
  concentration at 4383 h: 20.2 ng/g
[8]
  concentration at 2191.5 h: 36 ng/mL
[9]
  concentration at 730.5 h: 209 ng/mL
[10]
  Kp at 2191.5 h: 3
[11]
  Kp at 2191.5 h: 2.9
[12]
  Tmax: 17 h
[13]
  Cmax: 191 ng/mL
[14]
  concentration at 4383 h: < 5 ng/g
[15]
  concentration at 2191.5 h: 12.4 ng/g
[16]
  concentration at 2191.5 h: 49.5 ng/g
[17]
  Kp at 2191.5 h: 2.9
[18]
  concentration at 730.5 h: 1200 ng/g
[19]
  Kp at 2191.5 h: 2.3
[20]
  concentration at 730.5 h: 576 ng/g
Plasma
  Cp: BLD
[21]
  concentration at 4383 h: < 1 ng/mL
[22]
  concentration at 4383 h: 48 ng/g
[23]
  concentration at 2191.5 h: 3.3 ng/mL
[24]
  Kp at 2191.5 h: 3.9
[25]
  concentration at 730.5 h: 133 ng/g
[26]
  Tmax: 8.3 h
[27]
  concentration at 2191.5 h: 26.8 ng/g
[28]
  concentration at 2191.5 h: 16.9 ng/g
[29]
  Kp at 2191.5 h: 4.9
[30]
  Kp at 730.5 h: 5.7
Canis familiaris [31]
  Activity: Non-toxic
[32]
  concentration at 2191.5 h: 105 ng/g
[33]
  Tmax: 4.6 h
[34]
  AUC(0-inf): 1230 ng·h/mL
[35]
  AUC(0-t) at 2040 h: 97800 ng·h/mL
[36]
  AUC(0-inf): 8660 ng·h/mL
[37]
  Kp at 4383 h: 4.3
[38]
  concentration at 2191.5 h: 20.8 ng/g
[39]
  Kp at 730.5 h: 574
[40]
  concentration at 2191.5 h: < 5 ng/g
[41]
  concentration at 4383 h: 30.7 ng/g
[42]
  Kp at 730.5 h: 2.3
[43]
  Kp at 2191.5 h: 1.9
[44]
  concentration at 730.5 h: 606 ng/g
[45]
  concentration at 2191.5 h: 46.1 ng/g
[46]
  concentration at 730.5 h: 74.5 ng/mL
[47]
  concentration at 730.5 h: 142 ng/g
[48]
  concentration at 730.5 h: 189 ng/g
[49]
  concentration at 2191.5 h: 14.7 ng/g
[50]
  Kp at 2191.5 h: 2.3
[51]
  concentration at 2191.5 h: 467 ng/g
[52]
  concentration at 4383 h: 7.8 ng/g
[53]
  Kp at 2191.5 h: 2.2
[54]
  concentration at 2191.5 h: 84.2 ng/g
[55]
  concentration at 2191.5 h: 43.6 ng/g
